Values joined by “and” are separate entries in the source; they are usually repeats but may differ in a detail not shown here. Identical values can stand only once. Like-named read-outs stand apart in the source and are kept apart here.
Legend:
THP-1 = assay: 99% toxic dose (TD99) in THP-1; assay type: cell-based
[1] = In vivo pharmacokinetics, plasma and brain; parameters: species or system Balb/C male mice; conditions: 250 mg/kg intragastric; for AUC(0-inf) / MRT / half-life / AUC(0-t) / Cmax: male, Balb/C, mouse, po; for AUC(0-inf) / MRT / half-life / AUC(0-t) / Cmax / CL / Kel / Vd: plasma; for AUC(0-t): read-out: AUC0-7
Protocol: The pharmacokinetics of compound 1 was studied in white Balb/C male mice. 22 animals with an average body weight of 20 g were selected for the study. Before the study, the animals were kept on a standard vivarium ration with dry pelleted feed. All the test animals had free access to water but were deprived of food for 1 hour before administration of the compound. This regimen was continued for another hour after the administration.
Compound 1 in a dose of 250 mg/kg of body weight was administered as 0.5 ml of prepared suspension in 0.5% CMC by intragastric intubation. The animals were euthanized by decapitation for blood and brain sampling. Blood and brain samples (3 animals per time point) were taken at 0.5, 1, 2, 3, 5 and 7 hours after administration for pharmacokinetic evaluation. Blood was collected in heparinized tubes and centrifuged at 3500 RPM. Plasma was separated from formed elements and immediately frozen at −20° C. in freezer. This storage continued before transferring plasma for analysis. Serum from 6 untreated animals was used as a control and for equipment calibration with the compound. Mice brain was immediately frozen at −120° C.
Plasma separation: Samples of experimental blood ([…]) from animals were centrifuged at 3500 rpm for 15 minutes.
Sample preparation: A mixture of 60 μL of plasma and 180 μL of acetonitrile (MeCN) by intensive shaking (Vortex) for 30 sec. Centrifugation 32000 g for 4 min. After centrifugation the 150 μL of organic layer was injected into the HPLC column.
Equipment: HPLC System Agilent 1290 Infinity, MS spectrometer Agilent 6460 (Agilent Technologies, Santa Clara, California, United States of America)
HPLC conditions: Column: Agilent Eclipse Plus C18 RRHD 1.8 um 2.1×50 mm (Agilent Technologies, Santa Clara, California, United States of America), Temperature: 40° C., Flow speed: 0.4 mL/min
Eluent: A: water, 0.1% formic acid; B: 85% acetonitrile in water, 0.1% formic acid
Gradient: 0.0-3.0 min: 60% B (separation), 3.0-4.0 min: 60->97% B (washing and regeneration), 4.0-6.0 min: 97% B, 6.0-6.1 min: 97->60% B, 6.1-9.0 min: 60% B, Volume of sample: 2 μL. Retention time in above conditions: 2.40 min.
MS conditions: ESI(+), MRM 400->209, Dwell time: 200 ms, Fragmentor: 135 V, Collision energy: 12, Cell Accelerator: 3 V, Gas Temp: 350° C., Gas Flow: 12 I/min, Nebulizer: 35 psi, Sheath gas Temp: 300° C., Capillary Voltage: 3500 V, Nozzle Voltage: 450 V; Diverter valve: 0.0-1.3 min: to waste; 1.3-3.0 min: to MS, data acquisition, 3.0-7.0 min: to MS, idle, 7.0- . . . min: to waste
Brain separation: Samples of experimental brain from animals were dispersed at 25K turn/min for 3 minutes and 100 mg of each sample was balanced to a sterile container.
Sample preparation: A mixture of 100 mg of brain and 100 μL of water was treated by zirconium balls in a homogonisator MagNA Lyser for 30 sec. 300 μL of MeCN was added and intensive shaking (Vortex) for 30 sec was performed. Centrifugation 32000 g for 4 min.
Equipment: HPLC System Agilent 1290 Infinity, MS spectrometer Agilent 6460 (Agilent Technologies, Santa Clara, California, United States of America).
HPLC conditions: Column: Agilent Eclipse Plus C18 RRHD 1.8 um 2.1×50 mm (Agilent Technologies, Santa Clara, California, United States of America), Temperature: 40° C., Flow speed: 0.4 mL/min.
Eluent: A: water, 0.1% formic acid; B: 85% acetonitrile in water, 0.1% formic acid.
Gradient: 0.0-3.0 min: 60% B (separation), 3.0-4.0 min: 60->97% B (washing and regeneration), 4.0-6.0 min: 97% B, 6.0-6.1 min: 97->60% B, 6.1-9.0 min: 60% B, Volume of sample: 2 μL.
Retention time in above conditions: 2.40 min […]

Compound: Nc1nc(Nc2ccc(Cl)cc2)nn1S(=O)(=O)c1ccc2ccccc2c1 [Compound 1, N3-(4-chlorophenyl)-1-(2-naphthylsulfonyl)-1,2,4-triazole-3,5-diamine]
- 99% toxic dose (TD99) (THP-1): > 11 μg/ml and > 27.5 μM
- AUC(0-inf) ([1]; 250 mg/kg, mean of mice groups): 6220 ng·h/mL
- MRT ([1]; 250 mg/kg, mean of mice groups): 5.9 h
- half-life ([1]; 250 mg/kg, mean of mice groups): 4.1 h
- AUC(0-t) ([1]; 250 mg/kg, mean of mice groups): 4050 ng·h/mL
- AUC(0-inf) ([1]; 250 mg/kg, mice group 1): 6230 ng·h/mL
- Cmax ([1]; 250 mg/kg, mice group 1): 1050 ng/mL
- MRT ([1]; 250 mg/kg, mice group 1): 7.4 h
- half-life ([1]; 250 mg/kg, mice group 1): 5 h
- AUC(0-t) ([1]; 250 mg/kg, mice group 1): 3710 ng·h/mL
- AUC(0-inf) ([1]; 250 mg/kg, mice group 2): 6890 ng·h/mL
- Cmax ([1]; 250 mg/kg, mice group 2): 1170 ng/mL
- MRT ([1]; 250 mg/kg, mice group 2): 6.8 h
- half-life ([1]; 250 mg/kg, mice group 2): 5 h
- AUC(0-inf) ([1]; 250 mg/kg, mice group 3): 5550 ng·h/mL
- Cmax ([1]; 250 mg/kg, mice group 3): 1350 ng/mL
- MRT ([1]; 250 mg/kg, mice group 3): 3.6 h
- half-life ([1]; 250 mg/kg, mice group 3): 2.4 h
- AUC(0-t) ([1]; 250 mg/kg, mice group 3): 4080 ng·h/mL
- concentrations of the compound in brain ([1]; mice, preliminary, 250 mg/kg): 1-5 μg/ml and 2.5-12.5 μM
- CL ([1]; mean of mice groups): 0.809 L/h
- Kel ([1]; mean of mice groups): 0.1872 h⁻¹
- Vd ([1]; mean of mice groups): 4.8 L
- CL ([1]; mice group 1): 0.803 L/h
- Kel ([1]; mice group 1): 0.1382 h⁻¹
- Vd ([1]; mice group 1): 5.8 L
- CL ([1]; mice group 2): 0.725 L/h
- Kel ([1]; mice group 2): 0.1381 h⁻¹
- Vd ([1]; mice group 2): 5.3 L
- CL ([1]; mice group 3): 0.901 L/h
- Kel ([1]; mice group 3): 0.2852 h⁻¹
- Vd ([1]; mice group 3): 3.2 L
